B1: catalase: catalase (Sigma), removes hydrogen peroxide, a by-product of LOX activity (protein, UniProt P00432 2-527, looked up)
Catalase: ADNRDPASDQMKHWKEQRAAQKPDVLTTGGGNPVGDKLNSLTVGPRGPLLVQDVVFTDEMAHFDRERIPERVVHAKGAGAFGYFEVTHDITRYSKAKVFEHIGKRTPIAVRFSTVAGESGSADTVRDPRGFAVKFYTEDGNWDLVGNNTPIFFIRDALLFPSFIHSQKRNPQTHLKDPDMVWDFWSLRPESLHQVSFLFSDRGIPDGHRHMNGYGSHTFKLVNANGEAVYCKFHYKTDQGIKNLSVEDAARLAHEDPDYGLRDLFNAIATGNYPSWTLYIQVMTFSEAEIFPFNPFDLTKVWPHGDYPLIPVGKLVLNRNPVNYFAEVEQLAFDPSNMPPGIEPSPDKMLQGRLFAYPDTHRHRLGPNYLQIPVNCPYRARVANYQRDGPMCMMDNQGGAPNYYPNSFSAPEHQPSALEHRTHFSGDVQRFNSANDDNVTQVRTFYLKVLNEEQRKRLCENIAGHLKDAQLFIQKKAVKNFSDVHPEYGSRIQALLDKYNEEKPKNAVHTYVQHGSHLSAREKANL

Key:
Assay type in all cases: cell-based
[1] = system: MDA231 and SiHa cells; assay: In vitro invasion assay (Matrigel-coated inserts); conditions: various human cancer cells; 24 hr oxygen deprived
Method: The first step of the metastatic process is cell invasion. […] The invasion of various human cancer cells in vitro was examined. […] Because LOX is a copper-dependent enzyme that can act intracellularly or extracellularly, cells were treated with bathocuprione disulphonate (BCS), a copper chelator that cannot permeate the cell membrane.
Invasive behavior was examined in vitro as previously described. Briefly, cells were serum deprived for 24 h then 2.5×10^4 cells were seeded in triplicate on both Matrigel-coated and uncoated inserts, moved to chambers containing 750 μl of FBS as a chemo-attractant and incubated at in normoxic or oxygen deprived conditions for 24 hr. Treatments with beta-aminoproprionitrile or bathocuprione disulphonate (Sigma) were performed 24 h prior to serum deprivation, and continued throughout the experiment.

[2] = system: human cancer cells; assay: Cell viability; conditions: data not shown
[3] = system: FAK; assay: FAK phosphorylation (phospho-FAK immunoblot); conditions: cells expressing LOX shRNA transfected with mature LOX
Source text: Acquisition of motility is required before cells can migrate and invade. Invasive cell migration is a multi-step process^17 that commences with pseudopod protrusion at the leading edge driven by actin polymerization, resulting in focal adhesion formation and the activation of integrin and focal adhesion kinase (FAK). […] LOX protein expression extended along hairlike fibers protruding from the cell surface into the collagen matrix. […] Remodeling of the actin cytoskeleton with increased formation of stress fibers and focal adhesion in MDA231 control cells particularly in hypoxia was observed, which were not seen in cells expressing LOX shRNA.
A role for fibronectin (FN) was sought, because it was strongly associated with LOX expression in the breast cancer microarray data set that was analyzed (data not shown), is reported to regulate invasion, bind to integrins and interact with LOX, and is hypoxia induced. […] FAK phosphorylation could be induced in the cells expressing LOX shRNA by transfection with mature LOX (but not catalytically dead LOX), confirming a role for LOX in FAK phosphorylation. […]
Methods were performed as previously described. […] LOX was analyzed by using a rabbit polyclonal antibody raised against a synthetic peptide of human LOX (EDTSCDYGYHRRFA (SEQ ID NO:1); Open Biosystems). […] Quantification was performed with ImageQuant software.

Row | Molecule | increased invasion under hypoxia or anoxia [1] | cell viability [2] | FAK phosphorylation induced by transfection with mature LOX [3]
1 | Cc1cc(-c2ccc(S(=O)(=O)O)cc2)c2ccc3c(-c4ccc(S(=O)(=O)O)cc4)cc(C)nc3c2n1 [BCS, bathocuprione disulphonate] | prevented the enhanced invasion of hypoxic cells | Neither treatment with BAPN nor treatment with BCS affected cell viability | 
2 | B1 |  |  | could be prevented

Source: patent US20070225242A1, “Method and composition for treating and preventing tumor metastasis in vivo” (The Board of Trustees of the Leland Stanford Junior …, priority 2005, published 2007)
